Measurements reported in patent US20130197043A1, “USE OF THE FETAL REPROGRAMMING OF A PPAR AGONIST” (SNU R&DB FOUNDATION, priority 2010, published 2013).
pEC50: −log10 of the molar value.

Columns and labels:
[1] = system: mice subjected to fetal reprogramming; assay: Glucose tolerance test (GTT) of fetal-reprogrammed mice after high-fat feedstuff; assay type: in vivo; settings: GTT after 17 weeks high-fat feedstuff
Procedure: The present researchers conducted the glucose tolerance test (GTT) after the mice were fed with high-fat feedstuff for 17 weeks to induce diabetes. The experiment was conducted following the method proposed by Kelly, and challenged with over-night fasting in order to confirm the role thereof in the muscle. Glucose ([…]) was administered by using intraperitoneal injection, and then the blood glucose level change was measured for 2 hours. As a result, the fasting blood glucose level was lower, the maximum blood glucose concentration was lower, and the glucose clearance time was shorter in the mice of the administration group as compared with the mice of the control group (FIG. 19). At the same time, the insulin tolerance test was conducted (FIG. 20). To sum the above results up, it may be seen that animals subjected to fetal reprogramming by PPAR δ activation enhanced endurance due to an increase in slow muscle fibers and prevented and suppressed the occurrence of obesity and diabetes due to high-fat diet.

hPPAR δ = target: T1, hPPAR δ (Homo sapiens, UniProt Q03181); assay: Transfection assay in CV-1 cells, hPPAR δ; assay type: cell-based; settings: luciferase reporter
T1 construct: expressed in transfected cells; host or cells: CV-1 cells
T1 sequence (Q03181 1-441): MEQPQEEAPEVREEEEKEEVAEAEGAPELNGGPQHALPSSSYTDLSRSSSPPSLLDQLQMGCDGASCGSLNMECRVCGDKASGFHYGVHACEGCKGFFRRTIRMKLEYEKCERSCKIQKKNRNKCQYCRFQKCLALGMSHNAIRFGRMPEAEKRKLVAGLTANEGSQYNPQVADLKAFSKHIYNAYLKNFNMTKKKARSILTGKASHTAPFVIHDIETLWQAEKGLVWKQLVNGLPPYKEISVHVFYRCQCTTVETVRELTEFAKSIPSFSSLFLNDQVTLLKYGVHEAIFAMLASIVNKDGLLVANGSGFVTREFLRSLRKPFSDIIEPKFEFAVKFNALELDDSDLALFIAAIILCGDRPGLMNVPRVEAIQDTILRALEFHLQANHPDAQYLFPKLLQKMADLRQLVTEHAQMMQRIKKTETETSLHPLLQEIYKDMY
Procedure: (§1) This assay was conducted by using CV-1 cells. The cells were cultured on a 96-well plate with a DMEM medium containing 10% FBS, DBS (delipidated), and 1% penicillin/streptomycin in 37° C. of an incubator 5% of carbon dioxide. Test was conducted in four stages of cell inoculation, transfection, treatment with the developed material, and result confirmation. The CV-1 cells were inoculated on the 96-well plate at a cell density at 5,000 cells/well, and after 24 hours, transfection was performed. PPARs plasmid DNA, reporter DNA, and β-galactosidase DNA were mixed with a transfection reagent, and then used to treat the cells. The developed material was dissolved in dimethylsulfoxide (DMSO), and then was used to treat the cells by using media at various concentrations. After 24 hours of culturing in an incubator, the cells were lysed with a lysis buffer and luciferase activity and β-galactosidase activity were measured using a luminometer and a microplate reader. The measured luciferase value was calibrated with the β-galactosidase value, and this value was depicted on a graph and EC50 was determined.

hPPARa = target: T2, hPPARa (Homo sapiens, UniProt Q07869); assay: Transfection assay in CV-1 cells, hPPARa; assay type: cell-based; settings: luciferase reporter
T2 construct: expressed in transfected cells; host or cells: CV-1 cells
T2 sequence (Q07869 1-468): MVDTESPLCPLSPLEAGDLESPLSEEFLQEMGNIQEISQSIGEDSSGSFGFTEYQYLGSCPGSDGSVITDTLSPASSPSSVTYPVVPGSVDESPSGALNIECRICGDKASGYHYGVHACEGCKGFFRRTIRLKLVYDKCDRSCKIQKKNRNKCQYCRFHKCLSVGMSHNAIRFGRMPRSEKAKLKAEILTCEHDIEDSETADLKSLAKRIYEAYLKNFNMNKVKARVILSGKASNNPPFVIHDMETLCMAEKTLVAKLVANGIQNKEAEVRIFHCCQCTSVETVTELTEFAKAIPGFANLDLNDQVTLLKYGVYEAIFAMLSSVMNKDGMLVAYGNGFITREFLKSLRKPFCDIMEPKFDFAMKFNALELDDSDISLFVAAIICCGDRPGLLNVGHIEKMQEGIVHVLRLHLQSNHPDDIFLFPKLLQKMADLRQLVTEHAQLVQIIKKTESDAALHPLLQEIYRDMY
Procedure: as §1

HDL in serum = assay: High-density lipoprotein cholesterol (HDL) in serum; assay type: in vivo; settings: mice fed 10% fat feedstuff over 6 weeks
From the text: High-density lipoprotein cholesterol (HDL) has been known to play an important role in treating lipid metabolic disorders such as arteriosclerosis and hyperlipidemia while lowering the cholesterol level of an epidermal cell and mitigating an inflammatory reaction. Serum was separated from the mice fed over a 6-week period of feedstuff containing 10% fat in order to confirm the high-density cholesterol increase effect of Compounds 5 and 9, which were the developed materials of the present invention.

10-week old C57BL/6 mice = assay: Treadmill endurance test of adult mice exercised while administered; assay type: in vivo; settings: 10 mg/kg/day oral with exercise over 30 days
Procedure: In addition, it was verified that the developed material was effective in enhancing muscle endurance and improving muscular function. 10-week old C57BL/6 mice were exercised while being orally administered with the developed material at a concentration of 10 mg/kg/day. The mice were exercised using a treadmill for 30 minutes once each day over 30 days. The mice were exercised under exercise conditions of 2 meter/min for 5 minutes, 5 meters/min for 5 minutes, 8 meters/min for 5 minutes, and 20 meters/min for 5 minutes, respectively. By the end of the test, muscle endurance enhancement and muscular function improvement effects were tested by using a treadmill.

[2] = system: C57BL/6 mice with obesity induced by 35% fat feedstuff; assay: Obesity suppression effect in high-fat diet mice; assay type: in vivo; settings: 10 mg/kg/day oral, 60-day high-fat diet (35% fat)
Procedure: Test using mice was conducted in order to confirm the in vivo effect of the material according to the present invention. 8-week old C57BL/6 mice were used, and feedstuff containing 35% fat was used to induce obesity. A. vehicle and Compounds 5 and […] were orally administered. over 60-day period of high-fat diet.

pEC50 (hPPAR δ) | EC50 hPPARa (hPPARa) | SMILES | fasting blood glucose level versus control [1] | glucose clearance time versus control [1] | maximum blood glucose concentration versus control [1] | HDL increase in serum (HDL in serum) [%] | increase in the running distance versus control (10-week old C57BL/6 mice) [fold] | increase in the running time versus control (10-week old C57BL/6 mice) [fold] | obesity suppression effect versus vehicle control [2] [%]
 |  | Cc1cc(SC(Cc2ccccc2)c2sc(-c3ccc(C(F)(F)F)cc3)nc2C)ccc1OCC(=O)O (stereo not drawn) [CMDD1111] | lower | shorter | lower |  |  |  | 
8.48 | ia | Cc1cc(SC(Cc2ccc(-c3ccccc3)cc2)c2sc(-c3ccc(C(F)(F)F)cc3)nc2C)ccc1OCC(=O)O (stereo not drawn) [Compound 5] |  |  |  | 68 | 1.8 | 1.7 | 35
8.41 | ia | Cc1cc(SC(Cc2ccc(-c3ccc(F)cc3)cc2)c2sc(-c3ccc(C(F)(F)F)cc3)nc2C)ccc1OCC(=O)O (stereo not drawn) [Compound 9] |  |  |  | 62 | 1.5 | 1.5 | 33
